{"source": "ChEMBL document CHEMBL1150365", "about": "“Improved synthesis of antibacterial 3-substituted 6-anilinouracils” (Bioorg Med Chem Lett, 2008)", "key": {"Enterococcus faecalis": {"test_system": "Enterococcus faecalis", "test": "Antibacterial activity against Enterococcus faecalis ICB 27159 in presence of bovine serum by broth microdilution method", "format": "functional"}, "[1]": {"test": "Inhibition of Staphylococcus aureus DNA polymerase 3C"}, "Streptococcus pneumoniae": {"test_system": "Streptococcus pneumoniae", "test": "Antibacterial activity against Streptococcus pneumoniae 1707/4 in presence of bovine serum by broth microdilution method", "format": "functional"}, "Staphylococcus aureus [2]": {"test_system": "Staphylococcus aureus", "test": "Antibacterial activity against Staphylococcus aureus 133 by broth microdilution method", "format": "functional"}, "[3]": {"test": "Aqueous solubility of the compound", "format": "physicochemical", "conditions": "water"}, "Staphylococcus aureus [4]": {"test_system": "Staphylococcus aureus", "test": "Antibacterial activity in Staphylococcus aureus injected CFU mouse at 100 mg/kg, ip after 30 mins", "format": "functional, organism-based", "set-up": "dose 100 mg/kg"}}, "note": "The source made the active and inactive calls. The calls are words filed in the database; no cut-off is given here.", "data": [{"smiles": "O=C(Cn1c(=O)cc(Nc2ccc3c(c2)CCC3)[nH]c1=O)c1ccc(Br)cc1", "values": [{"measurement": "MIC", "setting": "Enterococcus faecalis", "value": "> 256", "unit": "µg/mL"}, {"measurement": "IC50", "setting": "[1]", "value": "> 13000", "unit": "nM"}, {"measurement": "MIC", "setting": "Streptococcus pneumoniae", "value": "> 256", "unit": "µg/mL"}, {"measurement": "MIC", "setting": "Staphylococcus aureus [2]", "value": "> 256", "unit": "µg/mL"}]}, {"smiles": "COC(=O)c1ccc(Cn2c(=O)cc(Nc3ccc4c(c3)CCC4)[nH]c2=O)o1", "values": [{"measurement": "MIC", "setting": "Enterococcus faecalis", "value": 32, "unit": "µg/mL"}, {"measurement": "IC50", "setting": "[1]", "value": 2000, "unit": "nM"}, {"measurement": "MIC", "setting": "Streptococcus pneumoniae", "value": 16, "unit": "µg/mL"}, {"measurement": "MIC", "setting": "Staphylococcus aureus [2]", "value": 32, "unit": "µg/mL"}]}, {"smiles": "CCOC(=O)Cn1c(=O)cc(Nc2ccc3c(c2)CCC3)[nH]c1=O", "values": [{"measurement": "MIC", "setting": "Enterococcus faecalis", "value": 64, "unit": "µg/mL"}, {"measurement": "IC50", "setting": "[1]", "value": 1500, "unit": "nM"}, {"measurement": "MIC", "setting": "Streptococcus pneumoniae", "value": 16, "unit": "µg/mL"}, {"measurement": "MIC", "setting": "Staphylococcus aureus [2]", "value": 16, "unit": "µg/mL"}]}, {"smiles": "O=c1cc(Nc2ccc3c(c2)CCC3)[nH]c(=O)n1CC1CC1", "values": [{"measurement": "MIC", "setting": "Enterococcus faecalis", "value": 16, "unit": "µg/mL"}, {"measurement": "IC50", "setting": "[1]", "value": 300, "unit": "nM"}, {"measurement": "solubility", "setting": "[3]", "value": 3.3, "unit": "µg/mL"}, {"measurement": "Activity", "setting": "Staphylococcus aureus [4]", "value": "inactive"}, {"measurement": "MIC", "setting": "Streptococcus pneumoniae", "value": 4, "unit": "µg/mL"}, {"measurement": "MIC", "setting": "Staphylococcus aureus [2]", "value": 4, "unit": "µg/mL"}]}, {"smiles": "CCc1cc(Nc2cc(=O)n(CCCO)c(=O)[nH]2)ccc1C", "values": [{"measurement": "MIC", "setting": "Enterococcus faecalis", "value": 16, "unit": "µg/mL"}, {"measurement": "IC50", "setting": "[1]", "value": 300, "unit": "nM"}, {"measurement": "MIC", "setting": "Streptococcus pneumoniae", "value": 8, "unit": "µg/mL"}, {"measurement": "MIC", "setting": "Staphylococcus aureus [2]", "value": 8, "unit": "µg/mL"}]}, {"smiles": "CN(C)C(=O)c1cc(Cn2c(=O)cc(Nc3ccc4c(c3)CCC4)[nH]c2=O)on1", "values": [{"measurement": "MIC", "setting": "Enterococcus faecalis", "value": 32, "unit": "µg/mL"}, {"measurement": "IC50", "setting": "[1]", "value": 1200, "unit": "nM"}, {"measurement": "MIC", "setting": "Streptococcus pneumoniae", "value": 16, "unit": "µg/mL"}, {"measurement": "MIC", "setting": "Staphylococcus aureus [2]", "value": 32, "unit": "µg/mL"}]}]}
